Assay results reported in patent US6841533B1, “Conformationally constrained backbone cyclized interleukin-6 antagonists” (Peptor Limited, priority 1995, dated 2005).
Numbered stars: 1 amine (or outer) side, 2 acyl side, 3 side chain; on linkers, the order of the positions; unused ones are H or OH. Bridge positions count the residues as written; N and C are the ends. Square brackets hold non-standard residues; d marks the D form. Peptide text beside a SMILES is read from it. Ala(Nα-(CH2)3CO) = C[C@@H](C(=O)[*:2])N(CCCC(=O)[*:3])[*:1]; Ala(Nα-(CH2)3NH) = C[C@@H](C(=O)[*:2])N(CCCN[*:3])[*:1]

Experiments:
[1] = tested on: B16.F10.9 melanoma cells; details: 200 ng/ml IL-6 and 125 ng/ml sIL-6R, three days, FIG. 2
Excerpt: The F10.9 sub-line of B16 (murine melanoma) expresses gp130 but not IL-6R. Addition of human IL-6 and human IL-6R, or a chimera of IL-6/IL-6R results in differentiation which is associated with growth arrest of the cells. Inhibition of IL-6 results in continued growth. Since the end point of this assay is cell growth rather than cell death, this assay system was used primarily in order to differentiate between suspected toxic effects observed on B9 or T1165 cells, and true inhibition of IL-6 activity.
Evaluation of the results in this assay is possible using two methods. One method uses vital dyes for monitoring cell growth. The second method comprises visual observation of the cell morphology and establishing a cut off point based on the following observations:
Cells which are not treated with IL-6 create a monolayer that covers almost all the surface area. Treatment with IL-6 causes growth arrest and a morphological change: the cells become very narrow and elongated as compared to the more spread out shape of the non-treated cells.
Peptides were added to B16.F10.9 melanoma cells in the presence of 200 ng/ml IL-6 and 125 ng/ml sIL-6R. Incubation for three days.

[2] = Metabolic stability in vitro against renal homogenate; type: in vitro ADME
Method: The special feature of the novel backbone cyclic peptide analogs is their metabolic stability as tested in vitro against degradation of the most aggressive enzyme mixture in the body (e.g., renal homogenate). PTR 5045 is stable under these conditions for up to 24 hours.

[3] = tested on: IL-6 mediated acute-phase response; assay: IL-6 mediated acute-phase response (turpentine model); type: in vivo, mice
Excerpt: The objective was to establish a simple first-line in-vivo model, for testing the activity of IL-6 inhibitors. The turpentine model was chosen based on the principal role that IL-6 plays in this inflammatory response.
Systemic and localized inflammation elicit a general reaction in the organism, known as the acute phase response, which includes fever, loss of body weight, hypoglycemia, and changes in the serum levels of several plasma proteins produced by the liver. IL-6 is an important mediator of the acute-phase reaction (see Heinrich et.al., Biochemistry J. 1 265:621, 1990 for a comprehensive review), together with IL-1 and TNF-α. It has been shown previously that sterile tissue damage caused by injection of turpentine induces an acute-phase reaction, and that IL-6 is an essential mediator of this response (Rokita et.al., Cytokine 5:454, 1993).
IL-6 knock-out (-/-) and matched wild-type (C57/Black; CB) mice were used. Sterile tissue damage was induced by subcutaneous injection of turpentine, 0.1 ml, into both hind limbs. IL-6 was determined in the serum by ELISA (QuantikineM, R&D). For liver acute-phase proteins, Fibrinogen was determined in citrated plasma, by the calcium method.
PTR 5045 (SEQ ID NO:75) was tested in this model in compare to the non-relevant control peptide PTR 4041 (SEQ ID NO:33) (Lys-GlyC2-Leu-Ile-Gln-Leu-Phe-GlyN3-Lys-Lys-NH2).

[4] = mice, turpentine, 1 or 10 mg/kg of peptide

CC(C)C[C@@H]1NC(=O)[C@H](C)N(C(=O)[C@H](Cc2ccccc2)NC(=O)[C@@H](CCCNC(=N)N)NC(=O)[C@H](CCCCN)NC(=O)[C@H](CCCNC(=N)N)NC(=O)[C@@H](N)Cc2c[nH]c3ccccc23)CCCC(=O)NCCCN([C@@H](C)C(N)=O)C(=O)[C@@H](Cc2ccc(O)cc2)NC(=O)[C@H](CCCNC(=N)N)NC1=O [PTR 5045, Trp-Arg-Lys-(D)Arg-Phe-AlaC3-Leu-Arg-(D)Tyr-AlaN3-NH2] (H-WRK[dR]F[Ala(Nα-(CH2)3CO)]LR[dY][Ala(Nα-(CH2)3NH)]-NH2; lactam 6-10)
concentration that fully blocks IL-6 activity [1]: about 250 nM | time stable against degradation by renal homogenate [2]: up to 24 hours | Mean weight loss % [3, 4]: −3.93% | Mean weight loss grams [3, 4]: −1.35 grams | reduction of the effect mediated by IL-6 on body weight during acute inflammation ([3]; versus control peptide PTR 4041): reduces by about half
